Consider three compounds from ChEMBL document CHEMBL3872210, “Synthesis and antiproliferative mechanism of action of pyrrolo[3',2':6,7] cyclohepta[1,2-d]pyrimidin-2-amines as singlet oxygen photosensitizers” (Eur J Med Chem, 2016).

Series [1] is described as follows: Selectivity index, ratio CC50 for cytotoxicity against human HT-29 cells to EC50 for photocytotoxicity against human HT-29 cells. The format is toxicity, cell-based. The settings on record: read-out: Ratio CC50/EC50.
Series [2] is described as follows: Photocytotoxicity against human MCF7 cells assessed as reduction in cell survival irradiated with 1.5 J/cm2 UV-light for 5 mins measured after 48 hrs by MTT assay. The format is functional, cell-based. The settings on record: MCF7, light or radiation study. For orientation: Formazan colour is commonly taken as a measure of viable cells.
The nature of series [3]: Dark toxicity against human HT-29 cells assessed as reduction in cell survival measured after 30 mins by MTT assay. The format is cell-based.
A short description of series [4]: Dark toxicity against human MCF7 cells assessed as reduction in cell survival measured after 30 mins by MTT assay. The format is cell-based.
Series [5] in a line: Induction of apoptosis in human MCF7 cells assessed as necrotic cells at photocytotoxic EC50 irradiated with 1.5 J/cm2 UV-light measured after 6 hrs by 7-AAD/PE annexin V staining based FACS analysis. The format is functional. On the technique in general: In flow cytometry, cells or beads pass a laser one at a time.
Series [6] in a line: Induction of singlet oxygen photogeneration in aqueous acetonitrile solution of ADPA assessed as photobleaching of anthracene absorption upon irradiation at 2.3 10^-5M at 315 nanometer after 1 hr by UV absorption method. The note with it: buffer. The format is physicochemical.
Series [7] is described as follows: Induction of singlet oxygen sensitization in aqueous acetonitrile solution irradiated with laser flash photolysis assessed as signal intensity absorbance at 355 nanometer by spectroscopic method. The format is physicochemical. The settings on record: buffer.
The subject of series [8] is MCF7. In words: Induction of mitochondrial dysfunction in human MCF7 cells assessed as accumulation of mitochondrial signal at perinuclear level at 2 uM irradiated with 1.5 J/cm2 UV-light measured after 20 to 120 mins by Mitotracker orange CMTM-ROS/Nuclear green staining based confocal microscopic method. The format is functional, cell-based.
The nature of series [9]: Induction of apoptosis in human MCF7 cells assessed as early apoptotic cells at photocytotoxic EC50 irradiated with 1.5 J/cm2 UV-light measured after 6 hrs by 7-AAD/PE annexin V staining based FACS analysis (reference value: 17 %). The format is functional.
Series [10] can be described thus: Induction of singlet oxygen sensitization in aqueous acetonitrile solution irradiated with laser flash photolysis assessed as signal intensity absorbance at 630 nanometer by spectroscopic method. The format is physicochemical. The settings on record: buffer.
The nature of series [11]: Selectivity index, ratio CC50 for cytotoxicity against human MCF7 cells to EC50 for photocytotoxicity against human MCF7 cells. The format is toxicity, cell-based. The note with it: read-out: Ratio CC50/EC50.
Series [12] can be described thus: Induction of lysosomal dysfunction in human MCF7 cells at 2 uM measured after 20 mins under dark condition by Lysotracker green DND staining based confocal microscopic method. The format is cell-based. The note with it: mcf7, 20 min.
Series [13] can be described thus: Induction of apoptosis in human MCF7 cells assessed as late apoptotic cells at photocytotoxic EC50 irradiated with 1.5 J/cm2 UV-light measured after 6 hrs by 7-AAD/PE annexin V staining based FACS analysis. The format is functional.
Series [14] relates to MCF7. In words: Induction of lysosomal membrane impairment in human MCF7 cells assessed as increase in dye accumulation in cytoplasm at 2 uM irradiated with 1.5 J/cm2 UV-light measured after 20 mins by Lysotracker green DND staining based confocal microscopic method. The format is functional, cell-based.
Series [15] has as its system MCF7. The series is described as follows: Induction of mitochondrial dysfunction in human MCF7 cells assessed as clustering and swelling in location at 2 uM irradiated with 1.5 J/cm2 UV-light measured after 20 to 120 mins by Mitotracker orange CMTM-ROS/Nuclear green staining based confocal microscopic method. The format is functional, cell-based.
Series [16] concerns MCF7. The series is described as follows: Induction of lysosomal dysfunction in human MCF7 cells at 2 uM irradiated with 1.5 J/cm2 UV-light measured after 20 mins by Lysotracker green DND staining based confocal microscopic method. The format is functional, cell-based.
Series [17] is described as follows: Photocytotoxicity against human HT-29 cells assessed as reduction in cell survival irradiated with 1.5 J/cm2 UV-light for 5 mins measured after 48 hrs by MTT assay. The format is functional, cell-based. The note with it: HT-29, light or radiation study.
Series [18] is described as follows: Selectivity index, ratio of CC50 for cytotoxicity against human HeLa cells to EC50 for photocytotoxicity against human HeLa cells. The format is toxicity, cell-based. The settings on record: read-out: Ratio CC50/EC50.
Series [19] in a line: Induction of mitochondrial dysfunction in human MCF7 cells at 2 uM measured after 20 mins under dark condition by Mitotracker orange CMTM-ROS/Nuclear green staining based confocal microscopic method. The format is cell-based. The note with it: mcf7, 20 min.
Series [20] can be described thus: Dark toxicity against human HeLa cells assessed as reduction in cell survival measured after 30 mins by MTT assay. The format is cell-based.
Series [21] deals with MCF7. The series is described as follows: Dark toxicity against human MCF7 cells assessed as increase in production of radical oxygen species at 1 to 4 uM after 2 hrs by H2DCFDA dye based fluorescence assay. The format is cell-based. The note with it: mcf7, 2 h.
Series [22] concerns MCF7. The series is described as follows: Induction of lysosomal dysfunction in human MCF7 cells at 2 uM irradiated with 1.5 J/cm2 UV-light measured after 2 hrs by Lysotracker green DND staining based confocal microscopic method. The format is functional, cell-based.
Series [23] can be described thus: Photocytotoxicity against human MCF7 cells assessed as increase in production of radical oxygen species at 4 uM pretreated for 30 mins followed by 1.5 J/cm2 UV-light irradiation for 5 mins measured after 2 hrs by H2DCFDA dye based fluorescence assay relative to control. The format is functional.
Series [24] in a line: Photocytotoxicity against human HeLa cells assessed as reduction in cell survival irradiated with 1.5 J/cm2 UV-light for 5 mins measured after 48 hrs by MTT assay. The format is functional, cell-based. The settings on record: light or radiation study.
Series [25] deals with MCF7. The series is described as follows: Induction of mitochondrial fusion in human MCF7 cells at 400 nM irradiated with 1.5 J/cm2 UV-light measured after 6 hrs by Mitotracker orange CMTM-ROS/Nuclear green staining based confocal microscopic method. The format is functional, cell-based.
Series [26] has as its system MCF7. In words: Induction of lysosomal dysfunction in human MCF7 cells at 400 nM irradiated with 1.5 J/cm2 UV-light measured after 6 hrs by Lysotracker green DND staining based confocal microscopic method. The format is functional, cell-based.
The nature of series [27]: Photocytotoxicity against human MCF7 cells assessed as increase in production of radical oxygen species at 400 nM pretreated for 30 mins followed by 1.5 J/cm2 UV-light irradiation for 5 mins measured after 2 hrs by H2DCFDA dye based fluorescence assay relative to control. The format is functional.
Series [28] can be described thus: Photocytotoxicity against human MCF7 cells assessed as increase in production of radical oxygen species at 400 nM pretreated for 30 mins followed by 1.5 J/cm2 UV-light irradiation for 5 mins measured after 6 hrs by H2DCFDA dye based fluorescence assay relative to control. The format is functional.
The test system of series [29] is MCF7. In words: Dark toxicity against human MCF7 cells assessed as increase in production of radical oxygen species at 4 uM after 2 hrs by H2DCFDA dye based fluorescence assay. The settings on record: mcf7, 2 h. The format is cell-based.
A short description of series [30]: Induction of singlet oxygen sensitization in aqueous acetonitrile solution irradiated with laser flash photolysis assessed as signal intensity absorbance at 610 nanometer by spectroscopic method. The format is physicochemical. The settings on record: buffer.

Usually EC50 stands for the concentration needed to bring the measured effect to its halfway point. What is called CC50 is the concentration that lowers cell viability or growth by half.

Structures are written as SMILES. Active and inactive are the calls of the source. The rule behind the calls is not given here. Some results are limits rather than exact numbers.

On to `CCOC(=O)c1cc2c(n1C)-c1nc(NC3CCCCC3)ncc1CCC2`, for which the selectivity ratio in series [1] was > 1110; in series [11] it was > 1250; in series [18] it was > 1270. In addition, the EC50 in series [2] is 0.08 µM; in series [17] it was 0.09 µM; in series [24], 0.08 µM. In addition, the 50% cytotoxic concentration (CC50) at 0.5 h in series [3], in [4] and in series [20] was > 100 µM in each case. Further, the Activity in series [5] was 11%; in [6] it was “Active”; in [7], 0.012; in [9], 47%; in series [10], 0.052; in series [12] it was “Non-Toxic”. Further, the Activity is 13% in [13], “Non-Toxic” in series [19], “Non-Toxic” with MCF7 [21] and 222% in series [23]. Besides, the result in the series with MCF7 [8], in the series on MCF7 [14], in the series on MCF7 [15], in the series on MCF7 [16] and in the series with MCF7 [22] was Active.
In the case of `CCCCCCCCCCCCCC(=O)O[C@@H]1[C@@H](C)[C@@]2(O)[C@@H](C=C(CO)C[C@]3(O)C(=O)C(C)=C[C@@H]23)[C@@H]2C(C)(C)[C@]12OC(C)=O` [PHORBOL MYRISTATE ACETATE], the result in the series with MCF7 [25] and in the series with MCF7 [26] was Active. The Activity was found to be 120% in series [27] and 420% in series [28].
Take `Cn1c(C(N)=O)cc2c1-c1nc(N)ncc1CCC2`: the EC50 in series [2] is 66 µM; in [17], > 100 µM; in [24], 8.75 µM. Further, the CC50 at 0.5 h in series [3], in series [4] and in series [20] was > 100 µM in each case. The Activity result in series [6] is on record as “Active”; in series [7] it was 0.012; in series [9], 22%; in the series on MCF7 [29] it was “Non-Toxic”; in series [12], “Non-Toxic”; in series [19], “Non-Toxic”. The Activity in series [30] is recorded as 0.0146. Further, the selectivity ratio in [11] is > 1.5; in [18], > 11.
